Source: US20240285656A1, “CANNABIDIOL (CBD) AND TERPENE F[…] INCREASES RESTORATIVE SLEEP IN HUMANS” (Defined Research, Inc., priority 2022, published 2024)

Tests used:
[1] = preclinical data; cited from earlier work
SSADH = biological target: T1, SSADH (Homo sapiens, UniProt P51649); settings: cited from earlier work
T1 sequence (P51649 48-535): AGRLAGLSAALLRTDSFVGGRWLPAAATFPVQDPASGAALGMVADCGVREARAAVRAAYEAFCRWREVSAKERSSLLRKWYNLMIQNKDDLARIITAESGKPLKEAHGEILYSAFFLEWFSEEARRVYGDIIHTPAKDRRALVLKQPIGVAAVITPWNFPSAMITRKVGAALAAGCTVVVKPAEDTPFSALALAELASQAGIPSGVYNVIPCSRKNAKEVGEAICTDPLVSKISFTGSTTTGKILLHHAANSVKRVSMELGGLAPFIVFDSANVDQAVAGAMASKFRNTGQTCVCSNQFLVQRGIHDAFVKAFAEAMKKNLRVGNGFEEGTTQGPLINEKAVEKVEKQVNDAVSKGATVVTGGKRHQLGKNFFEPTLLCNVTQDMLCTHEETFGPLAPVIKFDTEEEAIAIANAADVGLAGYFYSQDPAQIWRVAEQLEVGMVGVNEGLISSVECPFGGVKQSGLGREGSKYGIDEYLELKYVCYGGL

[2] = rodents; cited from earlier work
GABAA receptor [3] = settings: cited from earlier work; for GABAA receptor activity in cells: cell experiments
GABAA receptor [4] = settings: cited from earlier work
[5] = after one week of dosing; effect blocked by flumazenil; cited from earlier work
[6] = cited from earlier work
[7] = Clinical study 1 (Le Rêve 1.0): sleep physiology by Whoop sleep-tracking wristband, double-blind placebo-controlled crossover; type: in vivo, humans; settings: participant DR11; 7 days per treatment; relative to placebo
Description: Two independent clinical studies were completed to determine the effects of the CBD formulation on the structure and function of sleep physiology. Each of these independent studies were performed as a double-blind, placebo-controlled, randomized, crossover investigational study to determine if the CBD formulation influences sleep physiology in humans.
Primary sleep physiology data was collected from study participants in a completely unbiased manner from a non-invasive sleep-tracking wristband, called “Whoop” (https://www.whoop.com), which electronically collects and transmits sleep data from study participants in the comfort of their own beds. The wristband collects hundreds of data points per second from a 3-axis accelerometer, 3-axis gyroscope, and heart rate sensor. The wristband can accurately measure latency to fall asleep, total sleep time, sleep fragmentation, as well as the time spent in each sleep stage [Light, Slow Wave (Deep), Rapid Eye Movement (REM), and Awake]. The wristband also collects data using photoplethysmography (PPG), a technique that involves measuring blood flow by assessing superficial changes in blood volume. Heart rate, heart rate variability, and respiratory rate, can all be derived from PPG data, and all of these metrics are used in Whoop's sleep detection and staging algorithms. […]

[8] = Clinical study 1: modified Hamilton Anxiety Rating Scale; type: in vivo, humans; settings: responders n=10; placebo 15
Text: FIGS. 8A-8C are graphs showing the CBD formulation Decreasing Anxiety. At the end of each treatment period, study participants completed a clinically-validated survey entitled the Hamilton Anxiety Rating Scale^29. Each item in this rating scale is scored on a scale of 0 (not present) to 4 (severe), with a total score range of 0-53, where <14 indicates mild severity, 15-21 mild to moderate severity, and 22-27 moderate to severe. Based on this survey, the CBD formulation decreases anxiety in participants DR13 (FIG. 8A), DR16 (FIG. 8B), and DR21 (FIG. 8C) relative to the placebo control or CBD alone.
FIG. 9A is a graph showing the CBD formulation decreases Anxiety in “Responders”. […] Each item in this rating scale is scored on a scale of 0 (not present) to 4 (severe), with a total score range of 0-53, where <14 indicates mild severity, 15-21 mild to moderate severity, and 22-27 moderate to severe. […]
To measure the effects of the CBD formulation on anxiety, study participants completed a modified version of the Hamilton Anxiety Rating Scale, one of the first rating scales developed to measure the severity of anxiety symptoms that is widely used in clinical and research settings^29. […] Each item is scored on a scale of 0 (not present) to 4 (severe), with a total score range of 0-53, where <14 indicates mild severity, 15-21 mild to moderate severity, and 22-27 moderate to severe.

[9] = Clinical study 1: sleep survey / Participant Global Impression (PGI) questionnaire; type: in vivo, humans; settings: participant DR11; sleep survey at end of treatment period
Text: FIG. 7 is a graph showing the Study Participants Perceived That the CBD formulation Helped Them Sleep Better [p=0.13; (t test). n=23 responders per treatment group. Values are means±SEM]. At the end of each treatment period, study participants used a PGI questionnaire to determine if the treatment influenced their sleep relative to a baseline period before the treatments were initiated. Scoring Matrix: 1=Treatment Helped; 2-No Effect of Treatment; 3-Treatment Worsened.
In the first study, participants (N=23) were randomized to take a placebo control or the CBD formulation stated as Defined CBD in the Figures (˜300 mg CBD, ˜8 mg terpenes including linalool, myrcene, phytol, limonene, α-terpinene, α-terpineol, α-pinene, and β-caryophyllene) once daily, one hour before bedtime, for seven consecutive nights. […] Indeed, on average, over seven days of treatment, participant DR11 benefitted from nearly an extra hour of restorative sleep each night relative to the placebo control (FIG. 2B). Furthermore, participant DR11 was also able to perceive an improvement in their sleep quality and duration relative to the placebo control when they responded to a clinically validated sleep survey at the end of the treatment periods (as shown in Table 1).
At the end of each treatment period in the clinical studies, participants completed a modified version of a clinically validated questionnaire entitled the Participant Global Impression (PGI)^28. PGI assessments are based on the participant's global perception of the effects of treatment on sleep during each treatment period, as compared to their sleep during the baseline period of the study. […] Nevertheless, based on post-hoc power analysis performed, this effect would achieve statistical significance with a larger sample number.

[10] = given before simulation public speaking test; vs placebo; cited from earlier work

Which results are given for `C/C(=C\CO)CCC[C@H](C)CCC[C@H](C)CCCC(C)C` [phytol, (2E,7R,11R)-3,7,11,15-Tetramethylhexadec-2-en-1-ol]?
sedation in animals [1]: induce sedation; inhibition of SSADH (SSADH): inhibiting; sedative effects blocked by flumazenil [2]: blocked

For `CC1=CCC(C(C)(C)O)CC1` (stereo not drawn) [α-terpineol, 2-(4-methylcyclohex-3-en-1-yl)propan-2-ol], which sedation in animals [1] is on record?
Its sedation in animals is “induce sedation”.

What about the “GABAA receptor activity in cells” value (GABAA receptor [3]) of the same compound?
The value was “increase”.

With `C=C1CC/C=C(\C)CC[C@@H]2[C@@H]1CC2(C)C` [β-caryophyllene] as the compound, how does the sedation in animals [1] read?
The sedation in animals was “induce sedation”.

What about the locomotor activity [2] of the same compound?
Its locomotor activity is “did not affect”.

What about the motor coordination [2] of the same compound?
The motor coordination was “did not affect”.

What about the sleep [2] of the same compound?
Its sleep is “mildly promote sleep”.

Which results are given for `C=CC(C)(O)CCC=C(C)C` (centres unmarked) [linalool]?
sedation in animals [1]: induce sedation; binding to the GABA site or the benzodiazepine site of the GABAA receptor (GABAA receptor [4]): does not bind; GABAA receptor activity in cells (GABAA receptor [3]): significantly augment; sleep [2]: increases sleep

Which sedation in animals [1] does the source give for `C=C(C)C1CC=C(C)CC1` (centres unmarked) [limonene, 1-methyl-4-prop-1-en-2-ylcyclohexene] here?
The sedation in animals was “induce sedation”.

What about the “brain GABA levels” value [5] of the same compound?
The value was “increased”.

And the locomotor activity [2]?
Its locomotor activity is “reduced”.

And the motor coordination [2]?
Its motor coordination is “impaired”.

What about the sleep [2] of the same compound?
Its sleep is “induced sleep”.

For `CC1=CCC2CC1C2(C)C` (stereo not drawn) [α-pinene, 2,6,6-trimethylbicyclo[3.1.1]hept-2-ene], which sedation in animals [1] is on record?
Its sedation in animals is “induce sedation”.

What about the “GABAA receptor activity in cells” value (GABAA receptor [3]) of the same compound?
Its value is “increased”.

And the “effect in neurons blocked by flumazenil” value (GABAA receptor [3]; neurons, flumazenil (benzodiazepine site antagonist))?
The value was “fully blocked”.

What about the “sedative effects blocked by flumazenil” value [2] of the same compound?
Its value is “blocked”.

Which sedation in animals [1] does the source give for `C=CC(=C)CCC=C(C)C` [myrcene, 7-methyl-3-methylene-1,6-octadiene] here?
Its sedation in animals is “induce sedation”.

And the “GABAA receptor activity in cells” value (GABAA receptor [3])?
Its value is “increased”.

Which sedation in animals [1] does the source give for `CC1=CC=C(C(C)C)CC1` [α-terpinene, 1-methyl-4-propan-2-ylcyclohexa-1,3-diene] here?
The sedation in animals was “induce sedation”.

For `CCCCCc1cc(O)c2c(c1)OC(C)(C)[C@@H]1CCC(C)=C[C@@H]21` [THC, tetrahydrocannabinol], which “anxiety-promoting properties in clinical studies” value ([6]; in vivo) is on record?
Its value is “anxiogenic”.

With cannabidiol [CBD alone] as the compound, how does the “increase in percentage of time spent in REM sleep” value [7] read?
The value was “about 4%”.

What about the “increase in percentage of time spent in restorative sleep” value [7] of the same compound?
Its value is “about 2%”.

What about the “Hamilton Anxiety Rating Scale score” value [8] of the same compound?
Its value is 11.

What about the “Decreased Sleep Onset” value [9] of the same compound?
The value was “No”.

And the “Improved Sleep” value [9]?
Its value is “No”.

What about the “Lengthened Sleep Duration” value [9] of the same compound?
Its value is “No”.

What about the “block of the anxiogenic effects of THC” value ([6]; clinical studies) of the same compound?
The value was “can be blocked”.

And the “anxiety, cognitive impairment and discomfort” value [10]?
Its value is “significantly reduced”.

And the “hyper-alertness in anticipatory speech” value [10]?
Its value is “significantly decreased”.
